Results on 43 compounds are retold here after patent US20230142739A1, “PROTEIN-PROTEIN INTERACTION STABILIZERS” (The Regents of the University of California, priority 2020, published 2023).

The target of experiment [1] is T1, p65_45/14-3-3γ (Homo sapiens, UniProt P61981). Briefly: Fluorescence anisotropy protein titration, p65_45 peptide/14-3-3γ in presence of 1 mM fragment. Type of experiment: binding. Also noted: The full length 14-3-3γ was dialysis against 25 mM HEPES pH7.5; made in house; host or cells: E. coli BL21(DE3), pPROEX HTb. The protocol: SF: the fold-change of apparent KD in comparison to a DMSO control.
During compound titrations, the 14-3-3γ concentration was constant 50 μM and the compound was titrated in a 1:1 dilution series. In protein titrations, 14-3-3γ was titrated in a 1:1 dilution series in the presence of 1 mM compound. The plates (Corning 384 well plates, black, round bottom, low binding) were incubated for 3 h RT prior to fluorescence anisotropy (FA) measurements with the Tecan Infinite 500 plate reader (FITC dye: excitation 485 nm, emission 535 nm). Dilution series were prepared in FA buffer (10 mM HEPES pH 7.4, 150 mM NaCl, 0.1% Tween20). All measurements were performed once.
For orientation: Polarisation of emitted light reports the rotation of a fluorescent probe.

Experiment [2] addresses T1, p65_45/14-3-3γ. Kind of experiment: Fluorescence anisotropy compound titration, p65_45 peptide with 50 μM 14-3-3γ (CC50). The procedure:
Biochemical assessment of fragments 1-7 used a fluorescence anisotropy (FA) assay. […] The subsequent outputs are herein term termed ‘half maximal complex concentration (CC50)’. […] We sought to develop a structure-activity relationship (SAR) based upon these four chemotypes with the specific goal to develop high affinity molecular glues which orthosterically engage with p65 and stabilize the 14-3-3/p65 complex.
During compound titrations, the 14-3-3γ concentration was constant 50 μM and the compound was titrated in a 1:1 dilution series. In protein titrations, 14-3-3γ was titrated in a 1:1 dilution series in the presence of 1 mM compound. […] All measurements were performed once.

For experiment [3], the target named is ER (Homo sapiens, UniProt P31947). Briefly: MS (KD,app), ER. Type of experiment: binding. Particulars: 24 hr incubation.
Experiment [4] deals with T2, Pin1_72/14-3-3γ (Homo sapiens, UniProt P61981+Q13526).
T2 construct: the full length 14-3-3γ was dialysis against 25 mM HEPES pH 7.5; made in house; host or cells: E. coli BL21(DE3), pPROEX HTb
Briefly: Fluorescence anisotropy protein titration, Pin1_72/14-3-3γ at constant compound. It is filed as binding. The conditions noted are these: based on internal DMSO control and 100 μM fragment. The source says: Inspired by the binding poses of 3 and 9 we combined their structural features to improve stabilization. […] In case of complex stabilization, a left shift of apparent KD values is expected, here described as stabilization factors (SF).
Fluorescence Anisotropy (FA) Assays.

Where [5] appears, read: fold-change of apparent KD in comparison to a DMSO control, 1 mM fragment.
[6] abbreviates: Table 9, fold-change of apparent KD vs DMSO control.

For orientation: EC50 means the midpoint of the concentration-response curve. High values mean a need for much substance, low ones an effect from little substance.

Marks after values point to notes of the source that are not given here. Where only a bound is given, the exact number is not on record here.

Sequence of ER (P31947 whole entry, other chains not shown): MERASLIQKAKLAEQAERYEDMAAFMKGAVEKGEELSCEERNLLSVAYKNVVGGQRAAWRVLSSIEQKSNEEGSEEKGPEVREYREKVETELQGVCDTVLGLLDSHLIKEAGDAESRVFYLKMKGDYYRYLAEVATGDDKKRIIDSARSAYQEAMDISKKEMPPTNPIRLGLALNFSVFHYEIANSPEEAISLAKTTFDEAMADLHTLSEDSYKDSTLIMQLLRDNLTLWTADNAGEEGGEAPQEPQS
T1 sequence (P61981 whole entry, other chains not shown, the tested form may be a part): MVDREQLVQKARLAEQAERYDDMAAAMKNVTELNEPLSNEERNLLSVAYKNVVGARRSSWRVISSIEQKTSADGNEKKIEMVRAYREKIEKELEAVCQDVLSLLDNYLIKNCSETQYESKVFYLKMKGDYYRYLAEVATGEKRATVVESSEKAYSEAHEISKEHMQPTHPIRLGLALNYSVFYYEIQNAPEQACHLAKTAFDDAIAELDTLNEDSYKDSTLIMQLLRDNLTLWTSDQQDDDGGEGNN
T2 sequence (P61981 whole entry, other chains not shown): as the sequence (P61981 whole entry, other chains not shown, the tested form may be a part) above

In the case of `C[C@H]1CCCN1S(=O)(=O)c1ccc(C=O)cc1` [23e, 4-{[(2S)-2-methylpyrrolidin-1-yl]sulfonyl}benzaldehyde], the SF in experiment [1] (setting [5]) is on record as 20.6.

As for `COC1CCN(S(=O)(=O)c2ccc(C=O)cc2)CC1` [23t, 4-[(4-methoxypiperidin-1-yl)sulfonyl]benzaldehyde], in experiment [1] (setting [5]), the SF turned out to be 16.5.

The compound `O=Cc1ccc(S(=O)(=O)N2CCCc3cc(Cl)ccc32)cc1` [24d, 4-[(6-chloro-1,2,3,4-tetrahydroquinolin-1-yl)sulfonyl]benzaldehyde] registered a 50% effective concentration (EC50) in experiment [2] of 160 µM. Also, the SF in experiment [1] (setting [6]) is 36.

For `O=Cc1ccc(-n2cncc2[C@H]2CCCN2CC2CC2)nc1` [16e, 6-{5-[(2R)-1-(cyclopropylmethyl)pyrrolidin-2-yl]-1H-imidazol-1-yl}pyridine-3-carbaldehyde], in experiment [2], the “activity in FA compound titration” value was “induced an increase in anisotropy”.

In experiment [2], `O=Cc1ccc(S(=O)(=O)N2CCc3ccccc3C2)cc1` [23y, 4-(1,2,3,4-tetrahydroisoquinoline-2-sulfonyl)benzaldehyde] showed an EC50 of 180 µM. The SF was 0.7^a in experiment [1] (setting [6]) and 0.7 in experiment [1] (setting [5]).

For `COC1CCCN(S(=O)(=O)c2ccc(C=O)cc2)C1` (centres unmarked) [23r, 4-[(3-methoxypiperidin-1-yl)sulfonyl]benzaldehyde], the SF in experiment [1] (setting [5]) was 7.5.

In experiment [3], `O=C(CCl)CCC1CCN(C(=O)C2(Nc3ccc(Cl)cc3)CCOCC2)CC1` registered a Kd of 0.145 µM.

Regarding `COC1CN(S(=O)(=O)c2ccc(C=O)cc2)C1` [23d, 4-[(3-methoxyazetidin-1-yl)sulfonyl]benzaldehyde], the SF in experiment [1] (setting [5]) is given as 5.1.

As for `O=Cc1ccc(S(=O)(=O)N2CCc3ccccc32)cc1` [24a, 4-(2,3-dihydro-1H-indole-1-sulfonyl)benzaldehyde], the 50% effective concentration (EC50) in experiment [2] turned out to be 220 µM. Further, the SF in experiment [1] (setting [6]) stood at 30.

On to `COCCN1CCN(S(=O)(=O)c2ccc(C=O)cc2)CC1` [23l, 4-{[4-(2-methoxyethyl)piperazin-1-yl]sulfonyl}benzaldehyde], for which, in experiment [1] (setting [5]), the SF stood at 4.5.

Turning to `COc1ccc2c(c1)OCCN2S(=O)(=O)c1ccc(C=O)cc1` [24i, 4-[(7-methoxy-3,4-dihydro-2H-1,4-benzoxazin-4-yl)sulfonyl]benzaldehyde], the EC50 in experiment [2] came to 110 µM.

Turning to `O=Cc1ccc(S(=O)(=O)N2CCOCC2)cc1` [23u, 4-(morpholine-4-sulfonyl)benzaldehyde], the SF in experiment [1] (setting [5]) worked out at 6.3.

Turning to `O=Cc1ccc(S(=O)(=O)N2CCC(CNC(=O)CCl)CC2)cc1`, the Kd in experiment [3] is 150 µM.

Consider `O=C(CCl)NCCCC1CCN(C(=O)C2(Nc3ccc(Cl)cc3)CCOCC2)CC1`, for which the Kd in experiment [3] was less than 0.1 µM.

In experiment [2], `O=Cc1ccc(S(=O)(=O)N2CCOc3cc(Cl)ccc32)cc1` [24h, 4-[(7-chloro-3,4-dihydro-2H-1,4-benzoxazin-4-yl)sulfonyl]benzaldehyde] displayed a concentration for a half-maximal effect (EC50) of 250 µM. Also, in experiment [1] (setting [6]), the SF amounted to 28.

Consider `CN(C1CCCCC1)S(=O)(=O)c1ccc(C=O)cc1` [23w, N-cyclohexyl-4-formyl-N-methylbenzene-1-sulfonamide], for which the SF in experiment [1] (setting [5]) is 12.7.

Consider `O=Cc1ccc(S(=O)(=O)N2CCNC(=O)C2)cc1` [23p, 4-[(3-oxopiperazin-1-yl)sulfonyl]benzaldehyde], for which, in experiment [1] (setting [5]), the SF is listed as 2.2.

Take `O=Cc1ccc([N+](=O)[O-])c(N2CCOCC2)c1` [13q, 3-(morpholin-4-yl)-4-nitrobenzaldehyde]: the “activity in FA compound titration” value in experiment [2] is on record as “did not elicit significant ternary complex formation”.

In the case of `O=Cc1ccc(-n2ccnc2Br)nc1` [16d, 6-(2-bromo-1H-imidazol-1-yl)pyridine-3-carbaldehyde], in experiment [2], the “activity in FA compound titration” value is “induced an increase in anisotropy”.

As for `CN(C)C1CCN(S(=O)(=O)c2ccc(C=O)cc2)CC1` [23n, 4-{[4-(dimethylamino)piperidin-1-yl]sulfonyl}benzaldehyde], in experiment [1] (setting [5]), the SF is given as 3.5.

Take `COC1CCCN(c2cc(C=O)ccc2[N+](=O)[O-])C1` (centres unmarked) [13e, 3-(3-methoxypiperidin-1-yl)-4-nitrobenzaldehyde]: in experiment [2], the “activity in FA compound titration” value is on record as “did not elicit significant ternary complex formation”.

Regarding `O=Cc1ccc(S(=O)(=O)N2CCCC(O)C2)cc1` (centres unmarked) [23q, 4-[(3-hydroxypiperidin-1-yl)sulfonyl]benzaldehyde], the SF in experiment [1] (setting [5]) was found to be 10.3.

In turn, `O=Cc1ccc(S(=O)(=O)N2CCOc3ccc(F)cc32)cc1` [24g, 4-[(6-fluoro-3,4-dihydro-2H-1,4-benzoxazin-4-yl)sulfonyl]benzaldehyde] returned an EC50 in experiment [2] of 310 µM. For the same compound, the SF in experiment [1] (setting [6]) is given as 22.

In the case of `COc1ccc2c(c1)CCCN2S(=O)(=O)c1ccc(C=O)cc1` [24e, 4-[(6-methoxy-1,2,3,4-tetrahydroquinolin-1-yl)sulfonyl]benzaldehyde], a half-maximal effect in experiment [2] (EC50) was put at 120 µM. Besides, the SF in experiment [1] (setting [6]) was 34.

As to `O=Cc1ccc([N+](=O)[O-])c(N2CCCC(O)C2)c1` (centres unmarked) [13l, 3-(3-hydroxypiperidin-1-yl)-4-nitrobenzaldehyde], the “activity in FA compound titration” value in experiment [2] is listed as “did not elicit significant ternary complex formation”.

Turning to `C=CS(=O)(=O)NCC1CCN(C(=O)C2(Nc3ccc(Cl)cc3)CCOCC2)CC1`, in experiment [3], the Kd stood at 0.125 µM.

The compound `O=Cc1ccc(S(=O)(=O)N2CCOc3ccccc32)cc1` [24f, 4-(3,4-dihydro-2H-1,4-benzoxazine-4-sulfonyl)benzaldehyde] registered a half-maximal effective concentration (EC50) in experiment [2] of 220 µM. Moreover, in experiment [1] (setting [6]), the SF was 23.

Take `CC(=O)N1CCN(S(=O)(=O)c2ccc(C=O)cc2)CC1` [23o, 4-[(4-acetylpiperazin-1-yl)sulfonyl]benzaldehyde]: the SF in experiment [1] (setting [5]) came out at 4.5.

For `O=Cc1ccc(-n2ccnc2-c2ccccc2)cc1O` [compound 19, 2-hydroxy-4-(2-phenyl-1H-imidazol-1-yl)benzaldehyde], the “SF (fold stabilization)” value in experiment [4] worked out at 4.9.

For `O=Cc1ccc(S(=O)(=O)N2CCCc3cc(F)ccc32)cc1` [24c, 4-[(6-fluoro-1,2,3,4-tetrahydroquinolin-1-yl)sulfonyl]benzaldehyde], the midpoint of the response in experiment [2], the EC50, lay at 140 µM. Moreover, in experiment [1] (setting [6]), the SF is recorded as 56.

Consider `O=Cc1ccc(S(=O)(=O)N2CCC(O)CC2)cc1` [23s, 4-[(4-hydroxypiperidin-1-yl)sulfonyl]benzaldehyde], for which the SF in experiment [1] (setting [5]) is listed as 7.2.

For `Cn1ccc(NS(=O)(=O)c2ccc(C=O)cc2)n1` [23b, 4-formyl-N-(1-methyl-1H-pyrazol-3-yl)benzene-1-sulfonamide], in experiment [1] (setting [5]), the SF is 1.5.

Turning to `O=C(CCl)NCC1CCN(S(=O)(=O)c2ccc(Cl)cc2)CC1`, the Kd in experiment [3] is 7.15 µM.

As for `CN(C)S(=O)(=O)c1ccc(C=O)cc1` [23c, 4-formyl-N,N-dimethylbenzene-1-sulfonamide], in experiment [1] (setting [5]), the SF is 1.8.

On to `O=Cc1ccc(S(=O)(=O)N2CCC(N3CCCC3)CC2)cc1` [23m, 4-{[4-(pyrrolidin-1-yl)piperidin-1-yl]sulfonyl}benzaldehyde], for which the SF in experiment [1] (setting [5]) came to 3.5.

With `O=Cc1ccc([N+](=O)[O-])c(N2CCC(O)CC2)c1` [13f, 3-(4-hydroxypiperidin-1-yl)-4-nitrobenzaldehyde], the “activity in FA compound titration” value in experiment [2] is recorded as “did not elicit significant ternary complex formation”.

On to `CN1CCN(S(=O)(=O)c2ccc(C=O)cc2)CC1` [23h, 4-[(4-methylpiperazin-1-yl)sulfonyl]benzaldehyde], for which the SF in experiment [1] (setting [5]) is given as 3.3.

Consider `CCN1CCN(S(=O)(=O)c2ccc(C=O)cc2)CC1` [23i, 4-[(4-ethylpiperazin-1-yl)sulfonyl]benzaldehyde], for which the SF in experiment [1] (setting [5]) is listed as 3.3.

Regarding `O=Cc1ccc(-n2ccnc2-c2ccccc2)cc1C(F)(F)F` [compound 14, 4-(2-phenyl-1H-imidazol-1-yl)-2-(trifluoromethyl)benzaldehyde], in experiment [4], the “SF (fold stabilization)” value came out at 1.2.

Regarding `CN(C1CCOCC1)S(=O)(=O)c1ccc(C=O)cc1` [23x, 4-formyl-N-methyl-N-(oxan-4-yl)benzene-1-sulfonamide], the SF in experiment [1] (setting [5]) was determined as 5.9.

`CC1CCc2ccccc2N1S(=O)(=O)c1ccc(C=O)cc1` (racemic) [24b, rac-4-[(2-methyl-1,2,3,4-tetrahydroquinolin-1-yl)sulfonyl]benzaldehyde] registered a concentration for a half-maximal effect (EC50) in experiment [2] of 310 µM. Further, the SF in experiment [1] (setting [6]) turned out to be 36.

For the compound `CC(C)N1CCN(S(=O)(=O)c2ccc(C=O)cc2)CC1` [23j, 4-{[4-(propan-2-yl)piperazin-1-yl]sulfonyl}benzaldehyde], the SF in experiment [1] (setting [5]) was 5.5.

For the compound `CN1CCCN(S(=O)(=O)c2ccc(C=O)cc2)CC1` [23g, 4-[(4-methyl-1,4-diazepan-1-yl)sulfonyl]benzaldehyde], in experiment [1] (setting [5]), the SF was 4.0.
